Series [1] deals with Proprotein convertase subtilisin/kexin type 9 (Homo sapiens) (UniProt Q8NBP7). In words: Inhibition of PCSK9 transcriptional activity in human HepG2 cells stably expressing luciferase reporter plasmid containing PCSK9 promoter assessed as decrease in luciferase activity at 10 ug/ml incubated for 24 hrs by Luciferase assay relative to control. Format: cell-based. As to conditions: dose 10.0 µg/ml. A general note: Reporter assays use an easily measured gene product as a stand-in for the process of interest.
Proprotein convertase subtilisin/kexin type 9 (Homo sapiens), sequence (Q8NBP7 31-152 limits assumed): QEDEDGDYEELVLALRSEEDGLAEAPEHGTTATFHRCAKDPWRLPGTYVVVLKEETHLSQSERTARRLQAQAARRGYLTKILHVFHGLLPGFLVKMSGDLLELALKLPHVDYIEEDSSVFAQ
Proprotein convertase subtilisin/kexin type 9 (Homo sapiens), sequence (Q8NBP7 153-692 limits assumed): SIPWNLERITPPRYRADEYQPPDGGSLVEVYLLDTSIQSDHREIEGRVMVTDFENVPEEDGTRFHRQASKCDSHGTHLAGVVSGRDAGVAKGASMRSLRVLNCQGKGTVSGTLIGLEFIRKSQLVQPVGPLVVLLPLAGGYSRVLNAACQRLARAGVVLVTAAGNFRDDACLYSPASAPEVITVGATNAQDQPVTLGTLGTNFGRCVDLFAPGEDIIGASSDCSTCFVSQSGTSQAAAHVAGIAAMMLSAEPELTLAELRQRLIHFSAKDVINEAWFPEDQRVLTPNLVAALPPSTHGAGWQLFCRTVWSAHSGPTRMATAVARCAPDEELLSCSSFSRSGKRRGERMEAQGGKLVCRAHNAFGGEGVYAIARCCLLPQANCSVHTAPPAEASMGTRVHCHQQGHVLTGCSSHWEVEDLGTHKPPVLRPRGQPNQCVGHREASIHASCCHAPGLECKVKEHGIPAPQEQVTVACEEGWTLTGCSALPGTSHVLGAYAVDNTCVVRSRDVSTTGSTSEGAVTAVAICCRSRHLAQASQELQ

Series [2] can be described thus: Cytotoxicity against human HepG2 cells assessed as reduction in cell viability by measuring toxic concentration incubated for 24 hrs by MTT assay. Conditions: read-out: TC50. It counts as toxicity, cell-based.
The subject of series [3] is PCSK9 transcriptional activity. In words: Therapeutic index, ratio of TC50 for cytotoxicity against human HepG2 cells to IC50 for inhibition of PCSK9 transcriptional activity in human HepG2 cells stably expressing luciferase reporter plasmid containing PCSK9 promoter. Format: toxicity, cell-based.
Series [4] can be described thus: Acute toxicity in C57BL/6 mouse assessed as lethality upto 1000 mg/kg, IG and measured every day for 1 week. Format: organism-based. Conditions: in vivo, po, time 1 weeks.
The subject of series [5] is Mus musculus. In words: Antiatherosclerotic activity in high-fat diet fed ApoE knockout C57BL/6 mouse assessed as decrease in high-fat diet induced increase in body weight at 30 mg/kg, IG for 8 weeks. It counts as functional, organism-based.
The test system of series [6] is Mus musculus. In words: Antiatherosclerotic activity in high-fat diet fed ApoE knockout C57BL/6 mouse assessed as decrease in serum total cholesterol level at 30 mg/kg, IG for 8 weeks by lipid profiling assay. Format: functional, organism-based.
For series [7], the system named is Mus musculus. In words: Antiatherosclerotic activity in high-fat diet fed ApoE knockout C57BL/6 mouse assessed as decrease in serum triglyceride level at 30 mg/kg, IG for 8 weeks by lipid profiling assay. It counts as functional, organism-based.
Series [8] can be described thus: Acute toxicity in C57BL/6 mouse assessed as body weight change upto 1000 mg/kg, IG and measured every day for 1 week. It counts as organism-based. Conditions: in vivo, po, 168 h, time 1 weeks.
The nature of series [9]: Acute toxicity in C57BL/6 mouse assessed as behavioral change upto 1000 mg/kg, IG and measured every day for 1 week. Format: organism-based. As to conditions: in vivo, po, 168 h, time 1 weeks.
Series [10] in a line: Acute toxicity in C57BL/6 mouse assessed as survival upto 1000 mg/kg, IG and measured every day for 1 week. Format: organism-based. As to conditions: in vivo, po, 168 h, time 1 weeks.
The test system of series [11] is Mus musculus. In words: In vivo inhibition of PCSK9 in high-fat diet fed ApoE knockout C57BL/6 mouse assessed as decrease in PCSK9 expression in serum at 30 mg/kg, IG for 8 weeks by ELISA. It counts as functional, organism-based. On the technique in general: An ELISA detects its analyte on a solid surface through an enzyme-linked reagent.
Series [12] concerns Mus musculus. In words: In vivo inhibition of PCSK9 in high-fat diet fed ApoE knockout C57BL/6 mouse assessed as decrease in PCSK9 expression in liver at 30 mg/kg, IG for 8 weeks by Western blot analysis. Format: functional, organism-based. (In western blotting, separated proteins are transferred to a membrane and probed.)
The target in series [13] is Proprotein convertase subtilisin/kexin type 9 (Homo sapiens) (UniProt Q8NBP7). In words: Inhibition of PCSK9 in human HepG2 cells assessed as decrease in PCSK9 protein expression level at 2.5 to 25 uM incubated for 24 hrs by Western blot analysis. It counts as cell-based. As to conditions: dose 2.5-25 µM.
For series [14] the target is unchanged. In words: Inhibition of PCSK9 in human HepG2 cells assessed as increase in LDLR protein expression level at 2.5 to 25 uM incubated for 24 hrs by Western blot analysis. It counts as cell-based. As to conditions: dose 2.5-25 µM.
The target is the same in series [15]. In words: Inhibition of PCSK9 in human HepG2 cells assessed as increase in LDL-cholesterol cellular uptake by measuring DiI fluorescence at 2.5 to 25 uM incubated for 24 hrs by Dil-LDL staining based flow cytometry analysis. It counts as cell-based. As to conditions: dose 2.5-25 µM.
Series [16] has the same target. In words: Inhibition of PCSK9 in human HepG2 cells assessed as fold increase in LDL-cholesterol cellular uptake by measuring DiI fluorescence at 25 uM incubated for 24 hrs by Dil-LDL staining based flow cytometry analysis relative to control. It counts as cell-based.
The test system of series [17] is Mus musculus. In words: Antiatherosclerotic activity in high-fat diet fed ApoE knockout C57BL/6 mouse assessed as decrease in LDL cholesterol level at 30 mg/kg, IG for 8 weeks by FPLC analysis. It counts as functional, organism-based.
Series [18] deals with Mus musculus. In words: Antiatherosclerotic activity in high-fat diet fed ApoE knockout C57BL/6 mouse assessed as decrease in VLDL fraction cholesterol level at 30 mg/kg, IG for 8 weeks by FPLC analysis. Format: functional, organism-based.
The test system of series [19] is Mus musculus. In words: Antiatherosclerotic activity in high-fat diet fed ApoE knockout C57BL/6 mouse assessed as reduction in atherosclerotic plaque size in aortic root at 30 mg/kg, IG for 8 weeks by Oil Red O staining based imaging analysis. Format: functional, organism-based.
The subject of series [20] is Mus musculus. In words: Antiatherosclerotic activity in high-fat diet fed ApoE knockout C57BL/6 mouse assessed as reduction in atherosclerotic plaque size in aortae en face root at 30 mg/kg, IG for 8 weeks by Oil Red O staining based imaging analysis. It counts as functional, organism-based.
For series [21], the target named is Proprotein convertase subtilisin/kexin type 9 (Homo sapiens) (UniProt Q8NBP7). In words: Inhibition of PCSK9 transcriptional activity in human HepG2 cells transfected with luciferase reporter plasmid containing truncated D1 (-1711 to -1 base pairs) human PCSK9 promoter region assessed as decrease in luciferase activity incubated for 24 hrs by Luciferase assay. Format: cell-based.

The target is the same in series [22]. In words: Inhibition of PCSK9 transcriptional activity in human HepG2 cells transfected with luciferase reporter plasmid containing truncated D2 (-1214 to -1 base pairs) human PCSK9 promoter region assessed as decrease in luciferase activity incubated for 24 hrs by Luciferase assay. It counts as cell-based.
For series [23] the target is unchanged. In words: Inhibition of PCSK9 transcriptional activity in human HepG2 cells transfected with luciferase reporter plasmid containing truncated D3 (-709 to -1 base pairs) human PCSK9 promoter region assessed as decrease in luciferase activity incubated for 24 hrs by Luciferase assay. It counts as cell-based.
Series [24] shares this target. In words: Inhibition of PCSK9 transcriptional activity in human HepG2 cells transfected with luciferase reporter plasmid containing truncated D4 (-440 to -1 base pairs) human PCSK9 promoter region assessed as decrease in luciferase activity incubated for 24 hrs by Luciferase assay. It counts as cell-based.
For series [25] the target is unchanged. In words: Inhibition of PCSK9 transcriptional activity in human HepG2 cells transfected with luciferase reporter plasmid containing truncated D5 (-392 to -1 base pairs) human PCSK9 promoter region assessed as decrease in luciferase activity incubated for 24 hrs by Luciferase assay. It counts as cell-based.
The target is the same in series [26]. In words: Inhibition of PCSK9 transcriptional activity in human HepG2 cells transfected with luciferase reporter plasmid containing truncated D6 (-351 to -1 base pairs) human PCSK9 promoter region assessed as decrease in luciferase activity incubated for 24 hrs by Luciferase assay. It counts as cell-based.
Series [27] shares this target. In words: Inhibition of PCSK9 transcriptional activity in human HepG2 cells transfected with luciferase reporter plasmid containing truncated D7 (-335 to -1 base pairs) human PCSK9 promoter region assessed as decrease in luciferase activity incubated for 24 hrs by Luciferase assay. Format: cell-based.

The source made the active and inactive calls. The calls are words filed in the database; no cut-off is given here. Where only a bound is given, the exact number is not on record here.

The term inhibition denotes the share of the control response that was lost under treatment. As a reminder, the LD50 is the dose at which mortality reaches 50%. As for `COc1cccc(Cn2c(NCCO)nc3c2c(=O)n(C)c(=O)n3C)c1`, in series [1], the inhibition is 89.8%. Moreover, the CC50 at 24 h in [2] was 45.5 µM. Also, the selectivity ratio in series [3] worked out at 16.8. Further, the LD50 at 168 h in series [4] is 300 mg/kg. In the series with Mus musculus [5], the outcome was Active. The result in the series on Mus musculus [6] and in the series on Mus musculus [7] was inactive.

As to `COCCNc1nc2c(c(=O)n(C)c(=O)n2C)n1Cc1cccc(OC)c1`, the inhibition is 85.7% in [1], “Dose-Dependent Effect” in series [13], “Dose-Dependent Effect” in series [14] and “Dose-Dependent Effect” in series [15]. The CC50 at 24 h in series [2] is over 200 µM. The selectivity ratio in [3] is over 31.3. The Activity result in series [8], in series [9] and in series [10] was “Non-Toxic” throughout. The LD50 at 168 h in [4] is over 1000 mg/kg. For the same compound, the inhibition result (in the series with Mus musculus [11]; with Mus musculus [12]; in [21]; in series [22]; in series [23]; in series [24]) was “Active” throughout. Further, the inhibition result in series [25] is “Active”. Further, the fold change (FC) in series [16] came out at 1.7. For the same compound, the result in the series on Mus musculus [5], in the series on Mus musculus [6], with Mus musculus [7], with Mus musculus [17], with Mus musculus [18] and in the series on Mus musculus [19] was Active. For the same compound, in the series on Mus musculus [20], the outcome was Active. In addition, the inhibition result in [26] and in series [27] was “inactive” throughout.

`COc1cccc(Cn2c(NC[C@@H](C)O)nc3c2c(=O)n(C)c(=O)n3C)c1`: the inhibition in series [1] is 81.7%. Besides, in [2], the CC50 at 24 h came out at 89.2 µM. Besides, the selectivity ratio in series [3] amounted to 22.9.

Consider `Cn1c(=O)c2c(nc(NCCO)n2Cc2ccccc2)n(C)c1=O`, for which the inhibition in series [1] was found to be 80.4%. Further, the CC50 at 24 h in [2] stood at 85.5 µM. In addition, the selectivity ratio in series [3] stood at 23.1.

In the case of `Cn1c(=O)c2c(nc(NCCO)n2Cc2cccc(Cl)c2F)n(C)c1=O`, the inhibition was 95.8% in series [1], “Dose-Dependent Effect” in series [13], “Dose-Dependent Effect” in [14] and “Dose-Dependent Effect” in series [15]. In addition, the CC50 at 24 h in series [2] was over 200 µM. Further, in [3], the selectivity ratio is over 35.1. Besides, the Activity result in series [8], in series [9] and in series [10] was “Non-Toxic” throughout. In series [4], the median lethal dose (LD50) at 168 h is over 1000 mg/kg. Besides, in the series with Mus musculus [11], the inhibition entry was “inactive”. For the same compound, the inhibition result in the series with Mus musculus [12] was “Active”. The fold change (FC) in series [16] stood at 1.7. Also, the outcome in the series on Mus musculus [5] was Active. For the same compound, the outcome in the series on Mus musculus [6] and in the series with Mus musculus [7] was inactive.

For `Cn1c(=O)c2c(nc(NCCO)n2Cc2ccc(F)c(C(F)(F)F)c2)n(C)c1=O`, in series [1], the inhibition was 87%. Besides, the CC50 at 24 h in series [2] came out at 55.1 µM. Besides, the selectivity ratio in series [3] is 7.1.

Take `CCCn1c(NCCO)nc2c1c(=O)n(C)c(=O)n2C`: in [1], the inhibition turned out to be 12.1%.

Turning to `COc1cccc(Cn2c(NCCC3CCN(C)C3)nc3c2c(=O)n(C)c(=O)n3C)c1` (stereo not drawn), in [1], the inhibition was found to be 16.7%.

Turning to `Cn1c(=O)c2c(nc(NCCO)n2Cc2ccccc2Br)n(C)c1=O`, the inhibition in series [1] turned out to be 53.3%.

Regarding `Cn1c(=O)c2c(nc(NCCO)n2CC2CCOCC2)n(C)c1=O`, the inhibition in series [1] stood at 13.6%.
